In one test the target is human orexin-1 receptor (Homo sapiens (Human), UniProt O43613). The experiment in a line: In vitro assay: intracellular calcium measurements (FLIPR), antagonistic activity. It is filed as cell-based. As to conditions: CHO cells, 3 nM orexin-A, compound incubation 120 min; marked values are geometric means of n = 2-6; read-out: IC50 OX1.
For a further test, the target named is human orexin-2 receptor (Homo sapiens (Human), UniProt O43614). The description is as above. As to conditions: CHO cells, 3 nM orexin-A, compound incubation 120 min; marked values are geometric means of n = 2-6; read-out: IC50 OX2. It is filed as cell-based.

Here are results for 14 compounds from patent US9242970B2 (ACTELION PHARMACEUTICALS LTD., priority 2010, dated 2016).

The structures appear in SMILES notation.

human orexin-1 receptor, sequence (O43613 whole entry): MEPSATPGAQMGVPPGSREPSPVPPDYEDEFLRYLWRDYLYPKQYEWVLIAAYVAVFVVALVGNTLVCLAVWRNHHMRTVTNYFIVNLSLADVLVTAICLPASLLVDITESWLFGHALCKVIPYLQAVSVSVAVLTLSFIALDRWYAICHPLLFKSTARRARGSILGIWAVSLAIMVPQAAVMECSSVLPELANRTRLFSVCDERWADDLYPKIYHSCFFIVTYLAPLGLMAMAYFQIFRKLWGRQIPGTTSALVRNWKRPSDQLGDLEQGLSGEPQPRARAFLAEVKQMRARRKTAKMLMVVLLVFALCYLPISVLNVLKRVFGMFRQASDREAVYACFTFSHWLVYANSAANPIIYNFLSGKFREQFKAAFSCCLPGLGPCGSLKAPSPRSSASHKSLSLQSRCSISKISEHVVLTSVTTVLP
human orexin-2 receptor, sequence (O43614 whole entry): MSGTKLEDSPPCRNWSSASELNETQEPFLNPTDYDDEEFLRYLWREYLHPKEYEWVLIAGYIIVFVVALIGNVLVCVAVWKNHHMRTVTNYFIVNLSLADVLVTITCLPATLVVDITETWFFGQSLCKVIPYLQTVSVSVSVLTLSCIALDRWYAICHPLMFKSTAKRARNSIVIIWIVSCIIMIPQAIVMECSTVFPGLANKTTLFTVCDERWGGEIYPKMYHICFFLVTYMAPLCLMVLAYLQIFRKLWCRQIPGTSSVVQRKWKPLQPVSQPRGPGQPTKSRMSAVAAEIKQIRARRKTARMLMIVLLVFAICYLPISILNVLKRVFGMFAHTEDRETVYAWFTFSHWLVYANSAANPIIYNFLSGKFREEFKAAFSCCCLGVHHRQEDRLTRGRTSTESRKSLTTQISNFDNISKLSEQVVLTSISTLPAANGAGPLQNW

The IC50 is the point on the concentration scale where inhibition reaches its midpoint. On to `COc1cccc(OC)c1C1CCCC(=O)N1Cc1csc(-c2ccccc2)n1` (stereo not shown) [Example 35, 6-(2,6-dimethoxyphenyl)-1-((2-phenylthiazol-4-yl)methyl)piperidin-2-one], for which the values for the IC50 on human orexin-1 receptor and on human orexin-2 receptor were 28 nM and 5 nM, respectively.

For the compound `COc1cccc(OC)c1C1CCCC(=O)N1Cc1ccnc(Br)c1` (stereo not shown) [Example 36, 1-((2-bromopyridin-4-yl)methyl)-6-(2,6-dimethoxyphenyl)piperidin-2-one], the IC50 came to 1570 nM at human orexin-1 receptor and 1150 nM at human orexin-2 receptor.

On to `COc1cccc(OC)c1C1CCCC(=O)N1Cc1cccc(-c2ccccn2)c1F` (stereo not shown) [Example 37, 6-(2,6-dimethoxyphenyl)-1-(2-fluoro-3-(pyridin-2-yl)benzyl)piperidin-2-one], for which the results for the IC50 at human orexin-1 receptor and on human orexin-2 receptor were 72 nM and 64 nM, respectively.

Consider `COc1cccc(OC)c1C1CCCC(=O)N1Cc1cccc(-c2ccccn2)n1` (stereo not shown) [Example 38, 1-([2,2′-bipyridin]-6-ylmethyl)-6-(2,6-dimethoxyphenyl)piperidin-2-one], for which the half-inhibitory concentration (IC50) on human orexin-1 receptor is 153 nM; at human orexin-2 receptor, 87 nM.

For `COc1cccc(OC)c1C1CCCC(=O)N1Cc1cccc(-c2nccs2)n1` (stereo not shown) [Example 39, 6-(2,6-dimethoxyphenyl)-1-((6-(thiazol-2-yl)pyridin-2-yl)methyl)piperidin-2-one], the IC50 on human orexin-1 receptor was found to be 179 nM; on human orexin-2 receptor, 147 nM.

For the compound `COc1cccc(OC)c1C1CCCC(=O)N1Cc1cc(-c2ccccn2)ccc1F` (stereo not shown) [Example 40, 6-(2,6-dimethoxyphenyl)-1-(2-fluoro-5-(pyridin-2-yl)benzyl)piperidin-2-one], the values for the IC50 at human orexin-1 receptor and at human orexin-2 receptor were 75 nM and 696 nM, respectively.

Regarding `COc1cccc(OC)c1C1CCCC(=O)N1Cc1ccc(F)c(-c2ccccn2)c1` (stereo not shown) [Example 41, 6-(2,6-dimethoxyphenyl)-1-(4-fluoro-3-(pyridin-2-yl)benzyl)piperidin-2-one], the IC50 came out at 18 nM on human orexin-1 receptor and 26 nM at human orexin-2 receptor.

For `COc1cccc(OC)c1C1CCCC(=O)N1Cc1cccc(-c2cncs2)c1` (stereo not shown) [Example 42, 6-(2,6-dimethoxyphenyl)-1-(3-(thiazol-5-yl)benzyl)piperidin-2-one], the results for the IC50 on human orexin-1 receptor and at human orexin-2 receptor were 25 nM and 17 nM, respectively.

As to `COc1cccc(OC)c1C1CCCC(=O)N1Cc1cccc(-c2ncc(C)s2)c1` (stereo not shown) [Example 43, 6-(2,6-dimethoxyphenyl)-1-(3-(5-methylthiazol-2-yl)benzyl)piperidin-2-one], the IC50 at human orexin-1 receptor and on human orexin-2 receptor was 6 nM throughout.

On to `COc1cccc(OC)c1C1CCCC(=O)N1Cc1cccc(-n2nccn2)c1` (stereo not shown) [Example 44, 1-(3-(2H-1,2,3-triazol-2-yl)benzyl)-6-(2,6-dimethoxyphenyl)piperidin-2-one], for which the values for the IC50 at human orexin-1 receptor and at human orexin-2 receptor were 14 nM and 19 nM, respectively.

For the compound `COc1cccc(OC)c1C1CCCC(=O)N1Cc1cccc(-c2cscn2)c1` (stereo not shown) [Example 45, 6-(2,6-dimethoxyphenyl)-1-(3-(thiazol-4-yl)benzyl)piperidin-2-one], the IC50 on human orexin-1 receptor is 12 nM; on human orexin-2 receptor, 17 nM.

On to `COc1cccc(OC)c1C1CCCC(=O)N1Cc1cccc(-n2ccnn2)c1` (stereo not shown) [Example 46, 1-(3-(1H-1,2,3-triazol-1-yl)benzyl)-6-(2,6-dimethoxyphenyl)piperidin-2-one], for which the figures for the IC50 at human orexin-1 receptor and on human orexin-2 receptor were 440 nM and 239 nM, respectively.

In the case of `COc1cccc(OC)c1C1CCCC(=O)N1Cc1ccc2nc(C)sc2c1` (stereo not shown) [Example 47, 6-(2,6-dimethoxyphenyl)-1-((2-methylbenzo[d]thiazol-6-yl)methyl)piperidin-2-one], the IC50 on human orexin-1 receptor turned out to be 187 nM; on human orexin-2 receptor it was 165 nM.

Take `COc1cccc(OC)c1C1CCCC(=O)N1Cc1cc(-c2ccccn2)ccc1Cl` (stereo not shown) [Example 48, 1-(2-chloro-5-(pyridin-2-yl)benzyl)-6-(2,6-dimethoxyphenyl)piperidin-2-one]: the figures for the IC50 at human orexin-1 receptor and on human orexin-2 receptor were 169 nM and 625 nM, respectively.
